The values that follow come from patent US11191843B2, “Multi-arm targeting anti-cancer conjugate” (priority 2017, dated 2021).

The structures appear in SMILES notation.

This test has as its system orthotopic U87MG brain glioma. As to the kind of experiment: Effect on survival in orthotopic U87MG brain glioma model in nude mice. The class given is in vivo. Conditions: BALB/c nude mice, 40 mg·kg^-1 (as irinotecan), i.v. via tail, Q4D×3, dosing from day 12 after inoculation.

Method: Experimental animals: Female BALB/c nude mice (number of animals: 150, weeks of age: 6 to 8 weeks) were purchased from Beijing Vital River Laboratory Animal Technology Co., Ltd., and housed in an SPF animal room. The temperature was 20° C. to 25° C., the relative humidity was 40% to 70%, and the light and dark were respectively 12 hours. The animals had free access to water and food. After about one week of normal feeding, upon a veterinary inspection, mice with good physical signs and conditions could be selected for this experiment. A marking pen was used to mark the base of the tails of the animals before the grouping, and each animal was marked by ear clipping after the grouping.
Transplantable tumor cell strain: Brain glioma cell U87MG, derived from Cell Bank of Committee on Type Culture Collection of Chinese Academy of Science (CAS, stored frozen in liquid nitrogen in the laboratory).
According to the condition of cell growth, the cells were passaged once or twice every week, and were passaged in a ratio of 1:2 to 1:6.
Preparation of the animal model: U87MG cells in logarithmic phase of growth were collected. […] The cells were charged into a 50 mL centrifuge tube after being pipetted with a pipettor to make them evenly dispersed, and the centrifuge tube was placed in an ice box. […]
Data recording and calculation formula: The survival time of the animals were recorded.

Compound `CCc1c2c(nc3ccc(OC(=O)N4CCC(N5CCCCC5)CC4)cc13)-c1cc3c(c(=O)n1C2)COC(=O)[C@]3(O)CC` [irinotecan] returned a Median survival time of 27 days.
